Assays:
[1] = target: T1, hKCNQ2/3 (Homo sapiens, UniProt O43525+O43526); assay: Fluorescence assay using a voltage sensitive dye; type: cell-based; parameters: expressed in transfected cells; host or cells: CHO-K1
Procedure: Biological Data Fluorescence Assay Using a Voltage Sensitive Dye
Human CHO-K1 cells expressing KCNQ2/3 channels are cultivated adherently at 37° C., 5% CO2 and 95% humidity in cell culture bottles (e.g. 80 cm^2 TC flasks, Nunc) with DMEM-high glucose (Sigma Aldrich, D7777) including 10% FCS (PAN Biotech, e.g. 3302-P270521) or alternatively with MEM Alpha Medium (1×, liquid, Invitrogen, #22571), 10% fetal calf serum (FCS) (Invitrogen, #10270-106, heat-inactivated) and the necessary selection antibiotics.
Before being distributed for the measurements, the cells are washed with a 1×DPBS buffer without Ca^2+/Mg^2+ (e.g. Invitrogen, #14190-094) and detached from the bottom of the culture vessel by means of Accutase (PAA Laboratories, #L11-007) (incubation with Accutase for 15 min at 37° C.). The cell count then present is determined using a CASY™ cell counter (TCC model, Schärfe System) in order subsequently to apply, according to density optimization for the individual cell line, 20,000-30,000 cells/well/100 μl of the described nutrient medium to 96-well measuring plates of the Corning™ CellBIND™ type (Flat Clear Bottom Black Polystyrene Microplates, #3340). Incubation is then carried out for one hour at room temperature, without gassing or adjusting the humidity, followed by incubation for 24 hours at 37° C., 5% CO2 and 95% humidity.
The voltage-sensitive fluorescent dye from the Membrane Potential Assay Kit (Red™ Bulk format part R8123 for FLIPR, MDS Analytical Technologies™) is prepared by dissolving the contents of a vessel Membrane Potential Assay Kit Red Component A in 200 ml of extracellular buffer (ES buffer, 120 mM NaCl, 1 mM KCl, 10 mM HEPES, 2 mM CaCl2, 2 mM MgCl2, 10 mM glucose; pH 7.4). After removal of the nutrient medium, the cells are washed with 200 μl of ES buffer, then covered with a layer of 100 μl of the dye solution prepared above and incubated for 45 min at room temperature with the exclusion of light.
The fluorescence measurements are carried out with a BMG Labtech FLUOstar™ or BMG Labtech NOVOstar™ or BMG Labtech POLARstar™ instrument (525 nm excitation, 560 nm emission, Bottom Read mode). After incubation of the dye, 50 μl of the test substances in the desired concentrations, or 50 μl of ES buffer for control purposes, are introduced into separate cavities of the measuring plate and incubated for 30 min at room temperature while being shielded from light. The fluorescence intensity of the dye is then measured for 5 min and the fluorescence value F1 of each well is thus determined at a given, constant time. 15 μL of a 100 mM KCl solution ([…]) are then added to each well. The change in fluorescence is subsequently measured until all the relevant measured values have been obtained (mainly 5-30 min). At a given time after KCl application, a fluorescence value F2 is determined, in this case at the time of the fluorescence peak.
For calculation, the fluorescence intensity F2 is compared with the fluorescence intensity F1, and the agonistic activity of the target compound on the potassium channel is determined therefrom. F2 and F1 are calculated as follows:
[formula] In order to determine whether a substance has an agonistic activity,
[formula] for example, can be compared with
[formula] of control cells.
[formula] is determined by adding to the reaction batch only the buffer solution instead of the substance to be tested, determining the value F1K of the fluorescence intensity, adding the potassium ions as described above and measuring a value F2K of the fluorescence intensity. Then F2K and F1K are calculated as follows:
[formula] A substance has an agonistic activity on the potassium channel when
[formula] is greater than
[formula] Independently of the comparison of
[formula] it is also possible to conclude that a target compound has agonistic activity if an increase in
[formula] is to be observed as the dosage of the target compound increases. […]

[2] = target: T1, hKCNQ2/3; assay: Voltage clamp (patch-clamp) measurements; type: cell-based; parameters: expressed in transfected cells; host or cells: CHO-K1 (stably transfected); settings: for MAN rel eff @ 10 μm [RG = 1]: test substance 10 μM at −40 mV, increase in current standardized to retigabine (10 μM) effect = 1
Procedure: Voltage Clamp Measurements
In order to confirm a KCNQ2/3-agonistic action of the substances electrophysiologically, patch-clamp measurements (Hamill et al., 1981) were carried out in voltage clamp mode on a stably transfected hKCNQ2/3 CHO-K1 cell line. After formation of the gigaseal, the cells were first clamped at a holding potential of −60 mV. Thereafter, depolarizing voltage jumps were applied up to a potential of +20 mV (increment: 20 mV, duration: 1 second) in order to confirm the functional expression of KCNQ2/3-typical currents. The testing of the substances was carried out at a potential of −40 mV. The increase in current induced by retigabine (10 μM) at −40 mV was first recorded as a positive control on each cell. After complete washing out of the retigabine effect (duration: 80 s), the test substance (10 μM) was applied. The increase in current induced by the test substance was standardized to the retigabine effect and indicated as the relative efficacy (see below). Hamill O P, Marty A, Neher E, Sakmann B, Sigworth F J.: Improved patch-clamp techniques for high-resolution current recording from cells and cell-free membrane patches. Pflugers Arch. 1981 August; 391(2):85-100. Voltage-clamp measurements were carried out only for selected compounds: […]

[3] = tested on: male rats (Sprague-Dawley); assay: Formalin test, rat (second phase); type: in vivo; settings: pain rate vs vehicle control, late phase
Procedure: The investigations to determine the antinociceptive activity of the compounds were carried out in the formalin test on male rats (Sprague-Dawley, 150-170 g).
In the formalin test, a distinction is made between the first (early) phase (0-15 min after formalin injection) and the second (late) phase (15-60 min after formalin injection) (D. Dubuisson, S. G. Dennis, Pain 4, 161-174 (1977)). The early phase, as a direct reaction to the formalin injection, represents a model for acute pain, while the late phase is regarded as a model for persistent (chronic) pain (T. J. Coderre, J. Katz, A. L. Vaccarino, R. Meizack, Pain, Vol. 52, p. 259, 1993).
The compounds according to the invention were investigated in the second phase of the formalin test in order to obtain information about the activity of substances in the case of chronic/inflammatory pain.
A nociceptive reaction was induced in freely mobile test animals by means of a single subcutaneous formalin injection (50 μl, 5% strength) into the dorsal side of the right rear paw, the reaction manifesting itself in the following behaviour parameters: lifting and holding of the affected paw (score 1), shaking or twitching (score 2), licking and biting (score 3). The differing behaviors induced by the formalin injection were detected continuously by observation of the animals in the late phase of the formalin test and were weighted differently in an evaluation. Normal behavior, in which the animal puts its weight on all four paws equally, was recorded as score 0. The time of administration before the formalin injection was chosen in dependence on the mode of administration of the compounds according to the invention (intraperitoneal: 15 min, intravenous: 5 min). After injection of substances that have antinociceptive activity in the formalin test, the described behaviours (score 1-3) of the animals are reduced or even eliminated. […] The nociceptive behaviour was calculated as the so-called pain rate (PR). […] Based on the PR calculations, the activity of the substance was determined as the change compared with the control in percent.

[4] = tested on: rat; assay: Chung test on the rat; type: in vivo; settings: iv, i.v. administration
Text: In addition, Example 89 was investigated in the Chung test on the rat.

| SMILES | EC50 [1] [µM] | MAN rel eff @ 10 μm [RG = 1] [2] | also measured |
| --- | --- | --- | --- |
| O=C(NCC1CCCCC1)c1cccnc1SCCS(=O)(=O)c1ccccc1 [Example 56, N-(cyclohexylmethyl)-2-(2-(phenylsulfonyl)ethylthio)nicotinamide] | 1.01 | 1.06 | Change in % ([3]; 2.15 mg/kg i.v.): −34.1% |
| O=C(NCCC1CCCCC1)c1cccnc1SCCS(=O)(=O)c1ccccc1 [Example 58, N-(2-cyclohexylethyl)-2-(2-(phenylsulfonyl)ethylthio)nicotinamide] | 1.18 | 0.47 | – |
| O=C(NCc1cccs1)c1cccnc1SCCSc1cccc(C(F)(F)F)c1 [Example 73, N-(thiophen-2-ylmethyl)-2-(2-(3-(trifluoromethyl)phenylthio)ethylthio)-nicotinamide] | – | – | Change in % ([3]; 1 mg/kg i.v.): −29.9% |

Now from value to molecule, other results behind:

| EC50 [1] [µM] | MAN rel eff @ 10 μm [RG = 1] [2] | SMILES | also measured |
| --- | --- | --- | --- |
| 3.47 | 0.81 | Cc1ccc(CNC(=O)c2cccnc2SCCS(=O)(=O)c2ccccc2)o1 [Example 61, N-(5-methylfuran-2-ylmethyl)-2-(2-(phenylsulfonyl)ethylthio)nicotinamide] | – |
| 2.49 | 0.79 | O=C(NCc1ccccn1)c1cccnc1SCCS(=O)(=O)c1cccc(C(F)(F)F)c1 [Example 90, N-(pyridin-2-ylmethyl)-2-(2-(3-(trifluoromethyl)phenylsulfonyl)ethylthio)-nicotinamide] | – |
| 0.58 | 0.4 | Cc1cccc(CNC(=O)c2cccnc2SCCS(=O)(=O)c2ccccc2)c1 [Example 65, 2-(2-(phenylsulfonyl)ethylthio)-N-(3-tolylmethyl)nicotinamide] | – |
| 2.28 | – | O=C(NCc1cccs1)c1cccnc1SCCS(=O)(=O)c1ccccc1 [Example 89, 2-(2-(phenylsulfonyl)ethylthio)-N-(thiophen-2-ylmethyl)nicotinamide] | Change in % ([3]; 6.81 mg/kg i.v.): −74.2%; ED50 [4]: 6.3 mg/kg; EC50 ([2]; patch-clamp, hKCNQ2/3 CHO-K1 cell line, read-out: MAN EC50): 1.01 µM |

From patent US8084470B2, “Substituted nicotinamide compounds and uses thereof” (Gruenenthal GmbH, priority 2007, dated 2011)
